Read-outs that look alike come from different tables or passages of the source. Bridge positions count the residues as written; N and C are the ends. Peptide text beside a SMILES is read from it.
Tests used:
[1] = test system: Kv1.3/1.1 S3-S4 chimeric channel; experiment: Whole-cell patch clamp, chimeric channel; format: cell-based, human; conditions: +30 mV, mean ± SD
Description: To investigate the structural determinants underlying the differential regulatory effects of MrVIII on Kv1 channels, we employed a chimeric channel strategy. Using Kv1.3 as the template, the S1-S2, S3-S4, and S5-S6 transmembrane helices and their respective linkers from Kv1.1 were inserted to generate chimeras, generating the Kv1.3/1.1 S1-S2, Kv1.3/1.1 S3-S4, and Kv1.3/1.1 S5-S6 chimeric channels. […] These findings indicate that the S3-S4 is the key determinant for the differential inhibition of Kv1.1 and Kv1.3 by MrVIII. To further validate this conclusion, we constructed a reverse chimeric channel using Kv1.1 as the template, inserting the corresponding regions from Kv1.3 into Kv1.1. […] This finding more directly illustrates the exchange of the channel's voltage-dependence phenotype in toxin inhibition by swapping this S3-S4 between Kv1.1 and Kv1.3. […] In addition to confirming the differential role of S3-S4 between Kv1.1 and Kv1.3, we also substituted the S3-S4 of Kv1.4 and Kv1.7 into Kv1.3 to analyze MrVIII's inhibition profile. […] The IC50 for Kv1.3/1.7 S3-S4 could not be fitted, and inhi%(495 ms) was only 23.1 ± 10.0% (Fig. S2, E and F).
(§1) The cDNA of hKv1.1, hKv1.2, hKv1.3, rKv1.4, hKv1.5, mKv1.6, and hKv1.7 were subcloned into mammalian expression vectors pcDNA3.1 or pCMV-blank vectors, as well as other plasmids described previously ([35]). Channel mutants were generated by site-directed mutations. Briefly, the parental channel plasmid was amplified using a pair of oppositely directed primers harboring the designed mutation site, with KOD Fx (TOYOBO Co, Ltd). The resulting PCR mix was treated with FastDigest DpnI (Thermo Fisher Scientific) to remove the methylated template. Ten microliters of the digested product was then used to transform 100 μl E. coli DH5α competent cells. Transformants were randomly picked and sequenced to confirm the presence of the intended mutation.
(§2) CHO-K1 cells were selected for expressing Kv channels due to their lack of endogenous Kv channels, while HEK293 or ND7/23 cells were used for Nav and Cav channel expression. CHO-K1 cells were cultured in a Dulbecco's modified Eagle's medium/Ham's F-12 nutrient mixture (DMEM-F12) medium, and HEK293T and ND7/23 cells in DMEM medium, all supplemented with 10% fetal bovine serum and 1% penicillin-streptomycin (all from Gibco, Thermo Fisher Scientific, Inc) under standard conditions (37 °C, 5% CO2, and saturated humidity). These cell lines were purchased from Stem Cell Bank, Chinese Academy of Sciences. Channel plasmids were cotransfected with pEGFP-N1 (encoding GFP) into the respective cells using lipofectamine 2000, following the manufacturer's instructions (Invitrogen, Thermo Fisher Scientific, Inc.). Nav1.9-GFP plasmid was transfected into ND7/23 using the X-tremeGENE HP DNA Transfection Reagent (Roche). After 4 to 6 h transfection, cells were seeded onto poly-lysine–coated coverslips, and 24 to 36 h later, transfected cells were ready for patch-clamp analysis.
(§3) Patch clamp experiments were conducted using an electrophysiology platform comprising a MultiClamp 700B amplifier and an Axon Digidata 1550 AD/DA convertor (Axon Instruments). Data acquisition was performed with pClamp 10.5 software (Axon Instruments). All experiments were performed at room temperature.
For Kv current recordings, the bath solution contained (in mM) the following: 140 NaCl, 5 KCl, 1 MgCl2, 2 CaCl2, 10 glucose, and 10 Hepes (pH 7.3, adjusted with NaOH), and the pipette solution contained (in mM) the following: 140 KCl, 2.5 MgCl2, 11 EGTA, and 10 Hepes (pH 7.3, adjusted with KOH). Series resistance was maintained below 10 MΩ and compensated to 80%. Concentration–response curves were fitted by the Hill equation to determine the toxin's potency. Whole cell conductance (G) at each depolarizing voltage (V) was determined using the equation: G = I/(V−Vrev), where I is the current amplitude, and Vrev is the reversal potential. […]

hKv1.3 = target: T1, hKv1.3 (Homo sapiens, UniProt P22001); experiment: Whole-cell patch clamp, Kv1.3 ionic current in CHO-K1 cells; format: cell-based; conditions: mean ± SD; for IC50: 500 ms depolarization to +30 mV from −80 mV holding, CHO-K1, room temperature
T1 construct: expressed in transfected cells; host or cells: CHO-K1
T1 sequence (P22001 whole entry): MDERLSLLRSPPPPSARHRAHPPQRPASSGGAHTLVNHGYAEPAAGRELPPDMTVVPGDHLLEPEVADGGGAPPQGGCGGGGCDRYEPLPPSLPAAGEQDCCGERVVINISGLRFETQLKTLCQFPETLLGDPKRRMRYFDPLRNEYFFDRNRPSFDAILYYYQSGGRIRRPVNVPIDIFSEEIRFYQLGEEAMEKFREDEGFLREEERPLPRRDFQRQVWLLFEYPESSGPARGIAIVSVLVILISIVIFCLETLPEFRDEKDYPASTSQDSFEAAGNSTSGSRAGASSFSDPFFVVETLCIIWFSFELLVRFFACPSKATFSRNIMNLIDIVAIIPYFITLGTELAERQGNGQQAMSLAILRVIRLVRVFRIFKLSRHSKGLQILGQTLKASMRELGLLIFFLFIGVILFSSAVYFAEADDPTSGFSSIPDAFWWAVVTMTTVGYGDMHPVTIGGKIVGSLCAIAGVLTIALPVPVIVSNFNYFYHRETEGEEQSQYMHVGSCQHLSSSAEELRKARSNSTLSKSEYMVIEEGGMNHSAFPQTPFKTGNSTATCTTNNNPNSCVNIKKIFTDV
Description: as §1, §2, §3
(§4) For Kv current recordings, the bath solution contained (in mM) the following: 140 NaCl, 5 KCl, 1 MgCl2, 2 CaCl2, 10 glucose, and 10 Hepes (pH 7.3, adjusted with NaOH), and the pipette solution contained (in mM) the following: 140 KCl, 2.5 MgCl2, 11 EGTA, and 10 Hepes (pH 7.3, adjusted with KOH). Series resistance was maintained below 10 MΩ and compensated to 80%. Concentration–response curves were fitted by the Hill equation to determine the toxin's potency. Whole cell conductance (G) at each depolarizing voltage (V) was determined using the equation: G = I/(V−Vrev), where I is the current amplitude, and Vrev is the reversal potential. The reversal potential for K^+ current was estimated to be −85.6 mV using the Nernst equation. G-V curves were obtained by plotting the normalized conductance as a function of V and fitted by the Boltzmann equation: y = 1/(1+ exp((Va-V)/k)), which Va is the midpoint voltage, V is the test potential, and k is the slope factor. The steady-state fast inactivation of Kv1.3 was measured using a two-pulses protocol. The cell was held at −120 mV, and a train of conditional voltages (−120–40 mV in 10 mV increments, 60 s) were applied to induce channel inactivation, followed by a +60 mV test pulse (300 ms) to assess the proportion of noninactivated channels. The sweep interval was set to 30 s. Currents at the test pulse (I) were normalized to the maximum value (Imax) and plotted as a function of the conditional voltage (V). The curve was fitted by the Boltzmann equation: I/Imax = A+(1 − A)/(1+exp ((V−Vh)/K)), where Vh is the half-maximum inactivation voltage, A represents the minimum channel availability, and k is the slope factor.

Kv7.1 = experiment: Selectivity patch clamp, non-Kv1 channels; format: cell-based; conditions: 10 μM MrVIII; n = 3–5
Description: as §2, §3, §4

Kv4.1-4.3 = experiment: Selectivity patch clamp, non-Kv1 channels; format: cell-based; conditions: 10 μM MrVIII; n = 3–5
Description: as §2, §3, §4

Kv3.1-3.3 = experiment: Selectivity patch clamp, non-Kv1 channels; format: cell-based; conditions: 10 μM MrVIII; n = 3–5
Description: as §2, §3, §4

Kv2.1 = experiment: Selectivity patch clamp, non-Kv1 channels; format: cell-based; conditions: 10 μM MrVIII; n = 3–5
Description: as §2, §3, §4

Kv7.3 = experiment: Selectivity patch clamp, non-Kv1 channels; format: cell-based; conditions: 10 μM MrVIII; n = 3–5
Description: as §2, §3, §4

## CC[C@H](C)[C@@H]1NC(=O)[C@H](Cc2ccc(O)cc2)NC(=O)[C@H](CCC(N)=O)NC(=O)[C@@H]2CCCN2C(=O)[C@@H]2CSSC[C@H](NC(=O)[C@H](C)NC(=O)[C@H](CO)NC(=O)[C@H](CCC(=O)O)NC(=O)[C@H](CCC(=O)O)NC(=O)[C@@H](N)[C@@H](C)O)C(=O)NCC(=O)NCC(=O)N[C@@H](Cc3ccccc3)C(=O)N[C@@H](CC(N)=O)C(=O)N[C@@H](C)C(=O)N[C@@H](CCCNC(=N)N)C(=O)N[C@H]3CSSC[C@H](NC1=O)C(=O)N[C@@H](CCCCN)C(=O)NCC(=O)N[C@@H](Cc1c[nH]c4ccccc14)C(=O)N[C@@H](CCCNC(=N)N)C(=O)N[C@@H]([C@@H](C)O)C(=O)N[C@@H](CCCCN)C(=O)N[C@@H](CCCNC(=N)N)C(=O)N[C@H](C(=O)N[C@@H](CC(C)C)C(=O)N[C@@H](CC(N)=O)C(=O)N1CCC[C@H]1C(=O)O)CSSC[C@H](NC(=O)[C@H](CCCCN)NC(=O)[C@H](Cc1c[nH]cn1)NC(=O)[C@H](CC(C)C)NC(=O)[C@@H]1CCCN1C3=O)C(=O)N2 [MrVIII] (H-TEESACGGFNARCPLHKCCPQYICKGWRTKRCLNP-OH; disulfide 6-19, 13-24, 18-32; N-terminus and C-terminus assumed)
[1]; current at 50 ms, n = 4-5
  IC50: 230 ± 123 nM
[1]; current at 495 ms, negative = current enhanced
  inhi%(495 ms), Kv1.3/1.1 S3-S4 current: −10.0 ± 13.9%
hKv1.3; 5 nM MrVIII, control Va = −26.4 ± 4.6 mV, Boltzmann fit
  Va of G-V curve of Kv1.3 after toxin: −27.7 ± 5.1 mV
hKv1.3; 5 nM MrVIII, control Vh = −42.2 ± 4.7 mV, two-pulse protocol
  Vh of steady-state inactivation of Kv1.3 after toxin: −42.5 ± 2.4 mV
hKv1.3; 10 nM MrVIII, n = 6
  time constant for toxin association, Kv1.3: 5.4 ± 1.2 s
hKv1.3; native toxin, n = 7, read-out: IC50, inhibition of Kv1.3 peak current
  IC50: 4.4 ± 1.1 nM
hKv1.3; synthetic refolded toxin, n = 7, read-out: IC50, inhibition of Kv1.3 current
  IC50: 4.8 ± 1.6 nM
hKv1.3; washout with bath solution after 10 nM MrVIII, n = 6
  time constant for dissociation from Kv1.3: 33.4 ± 8.3 s
Kv7.1
  inhibition of Kv7.1 current: did not remarkably inhibit
Kv4.1-4.3
  inhibition of Kv4.1-4.3 currents: did not remarkably inhibit
Kv3.1-3.3
  inhibition of Kv3.1-3.3 currents: did not remarkably inhibit
Kv2.1
  inhibition of Kv2.1 current: did not remarkably inhibit
Kv7.3
  inhibition of Kv7.3 current: did not remarkably inhibit

From publication PMC11984586, “A novel spider toxin as a selective antagonist of the Kv1 subfamily of voltage-gated potassium channels through gating modulation” (The Journal of Biological Chemistry, 2025)
